The source of these data is patent US10363284B2, “β-hairpin peptidomimetics” (POLYPHOR AG, priority 2012, dated 2019).

Read-outs that look alike come from different tables or passages of the source. Positions of bridges follow the written chain, without caps; N, C: chain ends. Non-standard residues stand in square brackets, D forms with d. Residues, ends and D or L forms follow the SMILES beside them. dLys(iPr) = CC(C)NCCCC[C@@H](N)C(=O)O; Lys(iPr) = CC(C)NCCCC[C@H](N)C(=O)O; Orn(iPr) = CC(C)NCCC[C@H](N)C(=O)O; Ac3c = NC1(C(=O)O)CC1

The nature of one data set: Plasma protein binding. It is filed as in vitro ADME. Particulars: human. As for the experimental part:
495 μL aliquots of human plasma (Basler Blutspendedienst) as well as 495 μL aliquots of PBS were placed in individual deepwells of a polypropylene plate (Greiner) and spiked each with 5 μL of 1 mM solutions of peptides in 90% DMSO. After shaking the plate for 2 min at 600 rpm 150 μL aliquots of the plasma/peptide mixtures were transferred in triplicates to the polypropylene filter plate (10 kDa, Millipore) whereas 150 μL aliquots of the PBS/peptide mixtures were transferred either to the individual wells of the filter plate (filtered controls) or directly into the individual wells of the receiving plate (Greiner) (non-filtered controls). The plate sandwich consisting of filter and receiving plate was incubated for 1 h at 37° C. and subsequently centrifuged at 3220 g for 2 h at 15° C. The filtrates in the receiving plate were analysed by LC/MS as follows: Column: Waters, XBridge C18, mobile phases: (A) water+0.1% formic acid and (B) acetonitrile/water, 95/5 (v/v)+0.1% formic acid, gradient: 5%-100% (B) in 1.8 minutes, electrospray ionization, MRM detection (triple quadrupole). The peak areas were determined and triplicate values are averaged. The binding is expressed in percent of the filtered and non-filtered controls by 100−(100×T1h/Tctr). Finally the average of these values is calculated.

A further data set can be described thus: in vitro. It is filed as cell-based. As for the experimental part: Namalwa cells (CXCR4 natively expressing non-adherent cells, ATCC CRL-1432) were cultured in RPM11640 plus 10% FBS, and pen/strept. HELA cells were maintained in RPMI1640 plus 10% FBS, pen/strept and 2 mM L-glutamine. Cos-7 cells were grown in DMEM medium with […] glucose supplemented with 10% FCS, pen/strept and 2 mM L-glutamine. All cell lines were grown at 37° C. at 5% CO2. Cell media, media supplements, PBS-buffer, HEPES, antibiotic/antimycotic, pen/strept, non essential amino acid, L-glutamine, β-mercaptoethanol and sera were purchased from Gibco (Pailsey, UK). All fine chemicals were supplied by Merck (Darmstadt, Germany).
The cytotoxicity of the peptides to HELA cells (Acc57) and COS-7 cells (CRL-1651) was determined using the MTT reduction assay (T. Mossman, J. Immunol. Meth. 1983, 65, 55-63; M. V. Berridge, A. S. Tan, Arch. Biochem. Biophys. 1993, 303, 474-482). Briefly, the method was as follows: 4000 HELA cells/well and 3400 COS-7 cells/well were seeded and grown in 96-well microtiter plates for 24 h at 37° C. at 5% CO2. Thereafter, time zero (Tz) was determined by MTT reduction (see below). The supernatant of the remaining wells was discarded, and fresh medium and compounds in serial dilutions (12.5, 25 and 50 μM, triplicates; 0 μM, blank) were pipetted into the wells. After incubation of the cells for 48 h at 37° C. at 5% CO2 the supernatant was discarded again and 100 μL MTT reagent (0.5 mg/mL in RPMI1640 and DMEM, respectively)/well was added. Following incubation at 37° C. for 2-4 h the media were aspirated and the cells were spiked (100 μL isopropanol/well). The absorbance of the solubilized formazan was measured at 595 nm (OD595peptide). For each concentration averages were calculated from triplicates. The percentage of growth was calculated as follows: (OD595peptide−OD595Tz)/(OD595blank−OD595Tz)×100%. The GI50 (Growth Inhibition) concentrations were calculated for each peptide by using a trend line function for the concentrations (50, 25, 12.5 and 0 μM), the corresponding percentages and the value 50, (=TREND (C50:C0,%50:%0, 50).

Data set [1] is described as follows: Pharmacokinetic study (PK) after intravenous administration. The format is in vivo, male CD-1 mice. Particulars: mouse, i.v. 1 mg/kg; for AUC(0-inf) / Cmax / half-life / clearance / Vd: one-compartmental model; for clearance: read-out: CLiv (converted); for Vd: read-out: Vdis. As for the experimental part: For the compounds of Ex. 1 and Ex. 2 pharmacokinetic studies after intravenous (i.v.) administration were performed.
30 grams (±20%) male CD-1 mice obtained from Charles River Laboratories Deutschland GmbH were used. The vehicle, phosphate buffered saline, was added to give a final concentration of 0.5 mg/mL of the compound. The volume was 2 mL/kg and the compound was injected to give a final intravenous dose of 1 mg/kg. Approximately 300-400 μL of blood was removed under light isoflurane anesthesia by cardiac puncture at predetermined time intervals (5, 15, 30 min and 1, 2, 3, 4, hours) and added to heparinized tubes. Plasma was removed from pelleted cells upon centrifugation and frozen at −80° C. prior to HPLC-MS analysis.
Aliquots of 50 μL each of mouse plasma of untreated aminals (“blank” mouse plasma) were spiked with known amounts of the compounds Ex. 1 and Ex. 2 in order to obtain 10 plasma calibration samples for each compound in the range 1-4000 ng/mL.
Aliquots of 50 μL each of mouse plasma from treated animals were used as plasma study samples.
All plasma samples were spiked with an appropriate internal standard and extracted with acetonitrile containing 2% formic acid. Supernatants were evaporated to dryness under nitrogen and the remaining solids reconstituted in water+0.2% formic acid/acetonitrile 95/5 (v/v).
Extracts were then analyzed by reverse-phase chromatography (Acquity HSS C18 SB, 100×2.1 mm, 1.8 μm column, Waters), using the following conditions: mobile phases: (A) water+0.1% formic acid/acetonitrile 95/5 (v/v), (B) aceto-nitrile/water+0.1% formic acid 95/5 (v/v), gradient: 1% (B) 0-0.1 min, 40% (B) 0.1-2.5. The detection and quantification was performed by mass spectrometry, with electrospray interface in positive mode and selective fragmentation of analytes (4000 Q Trap mass spectrometer, AB Sciex).
PK parameters were calculated by WinNonLin™ software version 5.3 (Pharsight-A Certara™ Company, Mountain View, Calif. 94041 USA) using a one-compartmental model analysis. PK parameters were determined by least-square fitting of the model to the experimental data.

Setting [2] is: read-out: Plasma protein binding (converted).
The mark [3] stands for this setting: male, CD-1, plasma, iv, read-out: Calc. Conc. (plasma).

For the compound `CC(C)NCCCC[C@@H]1NC(=O)[C@H](CCC(N)=O)NC(=O)[C@H](Cc2ccc(O)cc2)NC(=O)[C@@H]2CSSC[C@H](NC(=O)[C@H](Cc3ccc(O)cc3)NC(=O)[C@H](Cc3c[nH]cn3)NC(=O)[C@H](Cc3ccc(O)cc3)NC(=O)[C@@H]3CCCN3C(=O)[C@@H](CCCCNC(C)C)NC1=O)C(=O)N[C@@H](CO)C(=O)N[C@@H](C)C(=O)N1CCC[C@@H]1C(=O)N[C@@H](CCCNC(C)C)C(=O)N[C@@H](CCCNC(=N)N)C(=O)N[C@@H](Cc1ccc(O)cc1)C(=O)N2` [Ex. 1, cyclo(-Tyr^1-His^2-Tyr^3-Cys^4-Ser^5-Ala^6-^DPro^7-Orn(iPr)^8-Arg^9-Tyr^10-Cys^11-Tyr^12-Gln^13-Lys(iPr)^14-^DLys(iPr)^15-Pro^16-), disulfide bond between Cys^4 and Cys^11] (cyclo(A[dP][Orn(iPr)]RYCYQ[Lys(iPr)][dLys(iPr)]PYHYCS); disulfide 6-15), the fraction unbound at 1 h, 10 μM in the data set “Plasma protein binding” (read-out: Fraction unbound, fu) came out at 0.45. For the same compound, the fraction unbound at 1 h, 10 μM in “Plasma protein binding” (setting [2]) is 0.45. Also, the GI50 at 48 h in the data set “in vitro” (African green monkey) is more than 50 µM. This compound came in with a GI50 at 48 h in “in vitro” (human) of more than 42 µM. For the same compound, in data set [1] (male, CD-1, plasma, iv), the AUC(0-inf) came out at 1020 ng·h/mL, the Cmax turned out to be 1880 ng/mL, the half-life is 24 min and the clearance is 16.4 mL/min/kg. Moreover, the Vd in data set [1] (male, CD-1, plasma, iv) was determined as 0.532 L/kg. In data set [1] (setting [3]), the level at 0.083 h is 1690 ng/mL, the level at 0.25 h was 1050 ng/mL, the level at 0.5 h is 749 ng/mL and the level at 1 h was 385 ng/mL. For the same compound, the level at 2 h in data set [1] (setting [3]) was 61 ng/mL. Further, the “Calc. Conc. (plasma)” value in data set [1] (time 3 h) is recorded as “<LoQ”. The “Calc. Conc. (plasma)” value in data set [1] (time 4 h) is recorded as “<LoQ”.

`CC(C)NCCCC[C@@H]1NC(=O)[C@H](CCC(N)=O)NC(=O)[C@H](Cc2ccc(O)cc2)NC(=O)[C@@H]2CSSC[C@H](NC(=O)[C@H](Cc3ccc(O)cc3)NC(=O)[C@H](Cc3c[nH]cn3)NC(=O)[C@H](Cc3ccc(O)cc3)NC(=O)[C@@H]3CCCN3C(=O)[C@H]3CCCN3C1=O)C(=O)N[C@@H](CO)C(=O)NC1(CC1)C(=O)N1CCC[C@@H]1C(=O)N[C@@H](CCCNC(C)C)C(=O)N[C@@H](CCCNC(=N)N)C(=O)N[C@@H](Cc1ccc(O)cc1)C(=O)N2` [Ex. 2, cyclo(-Tyr^1-His^2-Tyr^3-Cys^4-Ser^5-Acc^6-^DPro^7-Orn(iPr)^8-Arg^9-Tyr^10-Cys^11-Tyr^12-Gln^13-Lys(iPr)^14-^DPro^15-Pro^16-), disulfide bond between Cys^4 and Cys^11] (cyclo(YHYCS[Ac3c][dP][Orn(iPr)]RYCYQ[Lys(iPr)][dP]P); disulfide 4-11): in “Plasma protein binding” (read-out: Fraction unbound, fu), the fraction unbound at 1 h, 10 μM was determined as 0.57. Further, the fraction unbound at 1 h, 10 μM in the data set “Plasma protein binding” (setting [2]) is 0.57. Besides, the GI50 at 48 h in the data set “in vitro” (African green monkey) is more than 50 µM. Moreover, in the data set “in vitro” (human), the GI50 at 48 h is more than 34 µM. In data set [1] (male, CD-1, plasma, iv), the area under the curve AUC(0-inf) is 1460 ng·h/mL, the highest level (Cmax) was 1470 ng/mL, the half-life is 42 min and the clearance is 11.4 mL/min/kg. Further, in data set [1] (male, CD-1, plasma, iv), the Vd turned out to be 0.681 L/kg. Also, in data set [1] (setting [3]), the level at 0.083 h was 1250 ng/mL, the level at 0.25 h was 1210 ng/mL, the level at 0.5 h was 996 ng/mL and the level at 1 h was 516 ng/mL. For the same compound, in data set [1] (setting [3]), the level at 2 h is 117 ng/mL. Moreover, the level at 3 h in data set [1] (male, CD-1, plasma, iv, time 3 h, read-out: Calc. Conc. (plasma)) is 24 ng/mL. Also, the level at 4 h in data set [1] (male, CD-1, plasma, iv, time 4 h, read-out: Calc. Conc. (plasma)) is 14 ng/mL.
